Laboratory results published in ChEMBL document CHEMBL5465560, “Selectivity Literature for EUbOPEN Chemogenomic Library” (2024).

What was measured:
[1] = target: Dual specificity tyrosine-phosphorylation-regulated kinase 1B (Homo sapiens, UniProt Q9Y463); assay: Selectivity interaction (Kinase panel (Z-LYTE Assay)) EUB0001632a DYRK1B; settings: at 10 µM
[2] = target: MAP kinase-activated protein kinase 3 (Homo sapiens) (UniProt Q16644); assay: Selectivity interaction (Upstate Kinase Profiler service (Millipore)) EUB0000056c MAPKAPK3; settings: at 1 µM
[3] = target: T1, Dual specificity mitogen-activated protein kinase kinase 3 (Homo sapiens) (UniProt P46734); settings: at 10 µM
T1 sequence (whole entry): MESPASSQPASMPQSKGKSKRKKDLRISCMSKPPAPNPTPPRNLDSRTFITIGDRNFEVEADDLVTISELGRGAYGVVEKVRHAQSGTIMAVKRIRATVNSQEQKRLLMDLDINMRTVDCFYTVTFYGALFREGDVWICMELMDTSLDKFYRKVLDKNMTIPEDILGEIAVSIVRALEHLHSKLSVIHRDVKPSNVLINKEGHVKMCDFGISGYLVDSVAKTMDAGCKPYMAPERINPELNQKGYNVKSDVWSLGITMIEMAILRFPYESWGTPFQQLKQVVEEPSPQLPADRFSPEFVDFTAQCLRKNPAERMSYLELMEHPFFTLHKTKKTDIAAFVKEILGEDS

[4] = target: Ribosomal protein S6 kinase alpha-3 (Homo sapiens, UniProt P51812); assay: Selectivity interaction (ActivX KiNativ screen (kinase selectivity in THP-1 cell lysates)) EUB0000639a RPS6KA3; type: subcellular; settings: lysate, at 0.01 µM
[5] = target: Tyrosine-protein kinase Srms (Homo sapiens) (UniProt Q9H3Y6); assay: Selectivity interaction (KinomeScan (DiscoverX)) EUB0000695a SRMS; settings: at 100 nM
[6] = target: Serine/threonine-protein kinase pim-3 (Homo sapiens) (UniProt Q86V86); assay: Selectivity interaction (KinomeScan (DiscoverX)) EUB0000595a PIM3; settings: at 10 µM
[7] = target: G protein-coupled receptor kinase 4 (Homo sapiens) (UniProt P32298); assay: Selectivity interaction (KinomeScan (DiscoverX)) EUB0000595a GRK4; settings: at 10 µM
[8] = target: Casein kinase I isoform gamma-3 (Homo sapiens) (UniProt Q9Y6M4); assay: Selectivity interaction (KinomeScan (DiscoverX)) EUB0000655a CSNK1G3; settings: at 10 µM
[9] = target: T2, Serine/threonine-protein kinase Nek10 (Homo sapiens) (UniProt Q6ZWH5); assay: Selectivity interaction (KinomeScan (DiscoverX)) EUB0000229b NEK10; settings: at 10 µM
T2 sequence (whole entry): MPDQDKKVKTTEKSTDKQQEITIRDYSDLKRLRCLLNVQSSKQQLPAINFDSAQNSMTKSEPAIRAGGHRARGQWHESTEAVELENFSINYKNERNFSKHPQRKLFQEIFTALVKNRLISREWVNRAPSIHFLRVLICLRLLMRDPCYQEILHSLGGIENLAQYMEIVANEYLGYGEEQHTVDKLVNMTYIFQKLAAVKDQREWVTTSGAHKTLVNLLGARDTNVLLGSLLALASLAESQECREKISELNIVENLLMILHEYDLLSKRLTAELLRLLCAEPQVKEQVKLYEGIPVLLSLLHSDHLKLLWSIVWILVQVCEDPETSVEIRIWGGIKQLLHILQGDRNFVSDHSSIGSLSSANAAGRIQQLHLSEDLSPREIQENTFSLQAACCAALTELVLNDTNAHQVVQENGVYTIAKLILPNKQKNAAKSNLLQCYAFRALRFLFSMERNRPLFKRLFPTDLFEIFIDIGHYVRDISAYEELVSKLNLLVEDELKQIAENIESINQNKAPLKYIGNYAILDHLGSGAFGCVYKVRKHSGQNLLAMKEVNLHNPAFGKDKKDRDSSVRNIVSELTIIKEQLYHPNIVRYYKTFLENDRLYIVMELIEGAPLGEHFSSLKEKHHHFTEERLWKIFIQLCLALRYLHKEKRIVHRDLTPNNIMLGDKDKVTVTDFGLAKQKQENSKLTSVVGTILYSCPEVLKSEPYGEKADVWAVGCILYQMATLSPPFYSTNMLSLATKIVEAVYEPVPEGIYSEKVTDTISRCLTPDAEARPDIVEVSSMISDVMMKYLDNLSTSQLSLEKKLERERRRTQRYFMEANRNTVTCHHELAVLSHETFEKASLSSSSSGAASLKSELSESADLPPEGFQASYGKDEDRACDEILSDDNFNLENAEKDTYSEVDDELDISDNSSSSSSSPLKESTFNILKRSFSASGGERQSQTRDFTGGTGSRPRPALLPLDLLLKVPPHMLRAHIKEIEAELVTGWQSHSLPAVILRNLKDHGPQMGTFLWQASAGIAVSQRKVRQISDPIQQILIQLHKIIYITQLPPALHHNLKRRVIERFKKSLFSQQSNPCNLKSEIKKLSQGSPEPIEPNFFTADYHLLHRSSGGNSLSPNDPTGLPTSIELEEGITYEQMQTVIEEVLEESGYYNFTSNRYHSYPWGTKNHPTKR

[10] = target: Homeodomain-interacting protein kinase 2 (Homo sapiens, UniProt Q9H2X6); assay: Selectivity interaction (KinomeScan (DiscoverX)) EUB0000092b HIPK2; settings: at 10 µM
[11] = target: Focal adhesion kinase 1 (Homo sapiens, UniProt Q05397); assay: Selectivity interaction (KinomeScan (DiscoverX)) EUB0000618a PTK2; settings: at 10 µM
[12] = Selectivity interaction (KinomeScan (DiscoverX)) EUB0001619a CDPK1; settings: at 1 µM

Chain of Casein kinase I isoform gamma-3 (Homo sapiens) (Q9Y6M4 whole entry, looked up, canonical isoform): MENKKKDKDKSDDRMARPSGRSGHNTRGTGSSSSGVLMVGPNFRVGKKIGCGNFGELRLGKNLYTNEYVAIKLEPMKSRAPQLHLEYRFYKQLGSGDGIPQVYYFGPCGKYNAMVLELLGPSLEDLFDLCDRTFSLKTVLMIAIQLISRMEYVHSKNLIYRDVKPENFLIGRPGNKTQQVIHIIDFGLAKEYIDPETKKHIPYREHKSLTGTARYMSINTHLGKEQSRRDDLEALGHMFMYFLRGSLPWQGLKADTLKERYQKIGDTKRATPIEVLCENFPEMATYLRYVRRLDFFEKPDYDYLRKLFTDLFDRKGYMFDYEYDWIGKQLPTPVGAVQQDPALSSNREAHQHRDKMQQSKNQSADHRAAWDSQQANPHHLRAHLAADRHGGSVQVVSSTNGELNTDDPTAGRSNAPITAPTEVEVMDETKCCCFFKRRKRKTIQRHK
Chain of Homeodomain-interacting protein kinase 2 (Q9H2X6 whole entry, looked up): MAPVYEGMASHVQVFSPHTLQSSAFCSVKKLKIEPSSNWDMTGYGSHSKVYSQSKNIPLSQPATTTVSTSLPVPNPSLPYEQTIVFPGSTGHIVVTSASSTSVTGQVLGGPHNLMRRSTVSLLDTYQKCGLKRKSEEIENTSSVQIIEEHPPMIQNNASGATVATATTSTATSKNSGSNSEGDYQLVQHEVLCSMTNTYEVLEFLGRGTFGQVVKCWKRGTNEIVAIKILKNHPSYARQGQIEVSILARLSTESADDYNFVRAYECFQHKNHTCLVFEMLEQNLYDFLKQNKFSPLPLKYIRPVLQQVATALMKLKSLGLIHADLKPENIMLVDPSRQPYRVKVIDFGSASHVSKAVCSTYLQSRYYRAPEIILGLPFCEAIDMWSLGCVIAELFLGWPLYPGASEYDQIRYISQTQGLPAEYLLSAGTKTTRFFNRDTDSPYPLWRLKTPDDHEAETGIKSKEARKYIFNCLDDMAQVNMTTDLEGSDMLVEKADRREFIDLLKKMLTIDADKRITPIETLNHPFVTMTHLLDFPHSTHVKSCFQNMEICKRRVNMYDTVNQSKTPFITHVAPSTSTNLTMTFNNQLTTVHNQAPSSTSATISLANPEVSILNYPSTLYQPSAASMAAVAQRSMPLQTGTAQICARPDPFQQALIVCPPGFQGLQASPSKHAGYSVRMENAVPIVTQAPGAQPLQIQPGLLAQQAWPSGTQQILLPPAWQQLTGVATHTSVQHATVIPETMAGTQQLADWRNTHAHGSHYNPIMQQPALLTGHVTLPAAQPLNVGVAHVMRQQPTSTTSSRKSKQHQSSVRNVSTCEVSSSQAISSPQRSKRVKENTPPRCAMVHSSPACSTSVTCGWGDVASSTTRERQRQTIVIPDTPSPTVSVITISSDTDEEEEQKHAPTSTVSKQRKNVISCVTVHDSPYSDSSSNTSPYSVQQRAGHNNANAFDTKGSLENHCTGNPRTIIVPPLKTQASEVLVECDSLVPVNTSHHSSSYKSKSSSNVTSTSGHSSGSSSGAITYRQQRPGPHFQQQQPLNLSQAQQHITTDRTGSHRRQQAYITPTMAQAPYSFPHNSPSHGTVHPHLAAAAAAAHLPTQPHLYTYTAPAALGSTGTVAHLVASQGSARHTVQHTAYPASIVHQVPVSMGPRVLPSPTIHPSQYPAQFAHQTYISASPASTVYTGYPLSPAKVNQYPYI
Chain of Ribosomal protein S6 kinase alpha-3 (P51812 whole entry): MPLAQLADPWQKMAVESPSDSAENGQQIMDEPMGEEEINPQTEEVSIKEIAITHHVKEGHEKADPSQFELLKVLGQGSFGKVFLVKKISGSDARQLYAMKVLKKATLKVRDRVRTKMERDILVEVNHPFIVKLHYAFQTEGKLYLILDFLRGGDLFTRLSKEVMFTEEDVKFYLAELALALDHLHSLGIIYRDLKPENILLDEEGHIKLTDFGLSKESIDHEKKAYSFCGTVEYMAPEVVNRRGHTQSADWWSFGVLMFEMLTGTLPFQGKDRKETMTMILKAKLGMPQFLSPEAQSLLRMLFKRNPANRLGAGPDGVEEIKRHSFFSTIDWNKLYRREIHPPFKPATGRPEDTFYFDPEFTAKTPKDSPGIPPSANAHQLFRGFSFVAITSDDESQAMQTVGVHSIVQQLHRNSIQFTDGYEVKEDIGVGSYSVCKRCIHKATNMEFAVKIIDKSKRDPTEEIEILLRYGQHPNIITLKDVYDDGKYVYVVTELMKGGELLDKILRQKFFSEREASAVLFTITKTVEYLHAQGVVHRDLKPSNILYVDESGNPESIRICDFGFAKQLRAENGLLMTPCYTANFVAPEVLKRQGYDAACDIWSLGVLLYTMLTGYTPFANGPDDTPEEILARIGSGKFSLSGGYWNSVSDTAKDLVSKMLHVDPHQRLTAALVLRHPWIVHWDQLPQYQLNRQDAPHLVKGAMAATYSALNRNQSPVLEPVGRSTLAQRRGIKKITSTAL
Chain of Focal adhesion kinase 1 (Q05397 2-1052 limits assumed): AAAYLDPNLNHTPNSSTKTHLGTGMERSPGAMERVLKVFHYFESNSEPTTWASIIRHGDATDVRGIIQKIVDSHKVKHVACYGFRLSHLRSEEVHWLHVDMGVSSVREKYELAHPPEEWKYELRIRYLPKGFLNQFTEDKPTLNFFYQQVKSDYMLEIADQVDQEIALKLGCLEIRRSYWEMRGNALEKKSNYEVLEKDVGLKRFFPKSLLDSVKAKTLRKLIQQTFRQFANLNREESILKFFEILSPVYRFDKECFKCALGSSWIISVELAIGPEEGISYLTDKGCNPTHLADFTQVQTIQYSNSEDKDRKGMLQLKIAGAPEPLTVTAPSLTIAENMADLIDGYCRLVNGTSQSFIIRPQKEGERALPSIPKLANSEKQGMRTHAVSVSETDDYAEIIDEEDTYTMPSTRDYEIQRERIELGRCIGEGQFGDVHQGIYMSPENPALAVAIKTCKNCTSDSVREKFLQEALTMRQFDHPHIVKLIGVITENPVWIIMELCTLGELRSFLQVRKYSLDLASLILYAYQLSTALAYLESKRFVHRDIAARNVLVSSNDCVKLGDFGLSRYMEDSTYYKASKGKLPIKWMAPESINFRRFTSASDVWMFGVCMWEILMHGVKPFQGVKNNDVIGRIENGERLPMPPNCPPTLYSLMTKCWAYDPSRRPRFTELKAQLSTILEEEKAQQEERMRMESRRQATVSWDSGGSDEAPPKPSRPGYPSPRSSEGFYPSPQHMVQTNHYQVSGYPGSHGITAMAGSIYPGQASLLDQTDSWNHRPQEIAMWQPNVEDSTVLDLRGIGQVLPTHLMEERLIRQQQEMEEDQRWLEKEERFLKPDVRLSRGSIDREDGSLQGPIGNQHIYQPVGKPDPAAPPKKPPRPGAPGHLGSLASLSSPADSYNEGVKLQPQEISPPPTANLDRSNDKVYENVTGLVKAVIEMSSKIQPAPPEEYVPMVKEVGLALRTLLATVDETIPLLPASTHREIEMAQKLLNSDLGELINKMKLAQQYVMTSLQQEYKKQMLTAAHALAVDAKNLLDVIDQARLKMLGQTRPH
Chain of MAP kinase-activated protein kinase 3 (Homo sapiens) (Q16644 whole entry, looked up): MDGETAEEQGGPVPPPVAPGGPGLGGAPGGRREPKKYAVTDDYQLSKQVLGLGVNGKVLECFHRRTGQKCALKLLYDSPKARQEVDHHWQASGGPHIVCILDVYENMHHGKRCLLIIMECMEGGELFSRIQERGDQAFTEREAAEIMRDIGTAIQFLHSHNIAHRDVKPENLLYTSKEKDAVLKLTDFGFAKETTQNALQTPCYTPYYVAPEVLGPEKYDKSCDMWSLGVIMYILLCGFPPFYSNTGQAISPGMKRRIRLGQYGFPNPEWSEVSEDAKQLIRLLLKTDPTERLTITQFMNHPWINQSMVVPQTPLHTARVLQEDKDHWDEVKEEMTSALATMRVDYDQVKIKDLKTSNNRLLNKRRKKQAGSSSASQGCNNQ
Chain of Dual specificity tyrosine-phosphorylation-regulated kinase 1B (Q9Y463 whole entry, looked up): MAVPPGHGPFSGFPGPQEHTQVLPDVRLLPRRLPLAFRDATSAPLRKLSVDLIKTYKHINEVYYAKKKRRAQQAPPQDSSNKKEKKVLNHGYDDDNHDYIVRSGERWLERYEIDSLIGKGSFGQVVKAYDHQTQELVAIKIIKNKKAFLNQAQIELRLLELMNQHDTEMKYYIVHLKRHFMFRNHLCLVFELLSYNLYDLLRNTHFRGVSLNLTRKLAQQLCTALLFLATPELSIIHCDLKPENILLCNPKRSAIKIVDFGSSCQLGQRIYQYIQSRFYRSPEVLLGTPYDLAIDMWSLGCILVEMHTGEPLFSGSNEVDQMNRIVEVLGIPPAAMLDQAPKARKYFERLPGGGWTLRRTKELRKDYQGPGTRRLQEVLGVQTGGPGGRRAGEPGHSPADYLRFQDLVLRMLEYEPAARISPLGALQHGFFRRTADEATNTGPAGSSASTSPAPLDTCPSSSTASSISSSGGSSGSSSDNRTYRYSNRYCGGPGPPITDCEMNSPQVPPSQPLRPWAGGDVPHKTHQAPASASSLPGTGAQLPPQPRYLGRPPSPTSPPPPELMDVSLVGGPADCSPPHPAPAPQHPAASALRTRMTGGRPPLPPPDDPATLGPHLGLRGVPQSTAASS

Cn1cc(-n2cnc3c(NCc4nc5cc(Cl)c(Cl)cc5[nH]4)nc(N4CCOCC4)nc32)cn1
% of control [1]: 3.54%

Cc1ccc(-c2ccc3c(ccc4sc5c(c43)NC[C@@H](C)NC5=O)n2)cn1
% of inhibition [2]: 89%

CCN(CC)CCCCNc1ncc2cc(-c3cc(OC)cc(OC)c3)c(NC(=O)NC(C)(C)C)nc2n1
% of control [3]: 100%

CC[C@@H]1[C@H](F)C(=O)N[C@@H]1COc1nccc2cc(C(N)=O)c(OC)cc12 [ZIMLOVISERTIB]
% of inhibition [4]: -9.7%

Cc1cc(F)c(C(=O)Nc2cccc(-c3nncn3C(C)C)n2)cc1-n1cnc(C2CC2)c1
% of control [5]: 100%

COCC(=O)NC/C=C/c1ccc2ncnc(Nc3ccc(Oc4ccc(C)nc4)c(C)c3)c2c1 [CP-724714]
% of control [6]: 100%
% of control [7]: 100%

CN(C)CCOc1ccc(-c2nc(-c3ccncc3)c(-c3ccc4c(c3)CC/C4=N\O)[nH]2)cc1
% of control [8]: 92%

COc1cc(N(C)c2ccnc3ccc(C(F)(F)F)cc23)cc(OC)c1OC
% binding [9]: 100%

CCC(=O)N1CCN(c2ccc(-n3c(=O)ccc4cnc5ccc(-c6cnc7ccccc7c6)cc5c43)cc2C(F)(F)F)CC1
% of control [10]: 58%

O[C@H]1CC[C@H](Nc2ncc3nc(Nc4c(F)cc(F)cc4F)n([C@H]4CCOC4)c3n2)CC1
% of control [11]: 100%

N#Cc1cccc(-c2c[nH]c3ncnc(N4CCOCC4)c23)c1
% of control [12]: 78%
